Results on ten compounds are retold here after patent publication US5314998A, “Organic solvent-soluble metal-azo and metal-azomethine dyes” (Minnesota Mining and Manufacturing Company, priority 1992, dated 1994).

For data set [1] the following is noted: reported to decompose, apparently without melting; cited from earlier work.
Data set [2] in a line: Thermogravimetric analysis, loss of pyridine ligand. It counts as physicochemical.
Data set [3] in a line: Differential Scanning Calorimeter scan, melting behaviour. Conditions: Differential Scanning Calorimeter scan of analytically pure compound. Background: DSC measures the heat that a sample takes up or gives off during a temperature scan.
Procedure: Melting points of the metal complexes were determined using a Thomas-Hoover melting point apparatus or by differential scanning calorimetry at a heating rate of 5° C. per minute.
Data set [4] in a line: Solubility in heptane (absorbance at maximum of saturated solution), chromium metal-azo complexes. The following applies: room temperature (22° C.). It counts as physicochemical. The protocol: The samples were prepared by shaking the dye in heptane for several hours, allowing the samples to sit overnight, and filtering through a plug of glass wool to remove particulates.

Data set [5] can be described thus: Solubility in heptane (absorbance at maximum), four-coordinate platinum metal-azo complexes. Conditions: ambient temperature. The data set is classed as physicochemical. The text has this: ^b result obtained by measuring in a 1 cm cell and dividing result by
^c estimate based on fitting the spectrum in the 510-550 nm region.

As for `[Cu+2].[O-]c1ccccc1N=Nc1ccccc1[O-].c1ccncc1` [Compound 8, [[2,2-azobis[phenolato]](-2)-N,O,O](pyridine)copper], the decomposition temperature in data set [1] is 310 °C. The “Temperature of 50% Loss of Pyridine Ligand” value in data set [2] was found to be 133 °C.

Turning to `CCCCC(CCCC)c1ccncc1.[Cu+2].[O-]c1ccccc1N=Nc1ccccc1[O-]` [Compound 9, [[2,2-azobis[phenolato]](-2)-N,O,O](4-(5-nonylpyridine))copper], the “Temperature of 50% Loss of Pyridine Ligand” value in data set [2] amounted to 148 °C. Further, the DSC melting behaviour result in data set [3] is given as “has a classic melting transition associated with organic-like compounds”.

Consider `CCCCC(CCCC)c1ccncc1.CCCCN(CCCC)S(=O)(=O)c1ccc([O-])c(N=Nc2c([O-])ccc3ccccc23)c1.[Cu+2]` [Compound 11, [1-[5-N,N-dibutylsulfonamido-2-hydroxyphenyl]azo-2-naphthalenolato(-2)](4-(5-nonylpyridine))copper], for which the “Temperature of 50% Loss of Pyridine Ligand” value in data set [2] came to 223 °C. Also, the DSC melting behaviour entry in data set [3] is “has a classic melting transition associated with organic-like compounds”. `CC(=O)[CH-]C(C)=O.[Cr+3].[O-]c1ccccc1N=Nc1ccccc1[O-].c1ccncc1` [Compound 28, [[2,2-azobis[phenolato]](-2)-N,O,O](pyridine)(2,4-pentanedionato-O,O)chromium]: in data set [4], the “Absorbance at Maximum in Heptane/1 mm Cell” value (“Absorbance at Maximum” for short) was 0.022. As to `CC(=O)C=C(C)[O-].CCc1ccncc1.[Cr+3].[O-]c1ccccc1N=Nc1ccccc1[O-]` [Compound 31, [[2,2-azobis[phenolato]](-2)-N,O,O](2,4-pentanedionato-O,O)(4-ethylpyridine)chromium], the “Absorbance at Maximum” value in data set [4] is listed as 0.644. With `CC(=O)C=C(C)[O-].CCOC(=O)c1cccnc1.[Cr+3].[O-]c1ccccc1N=Nc1ccccc1[O-]` [Compound 32, [[2,2-azobis[phenolato]](-2)-N,O,O](2,4-pentanedionato-O,O)(ethyl nicotinate)chromium], the “Absorbance at Maximum” value in data set [4] turned out to be 0.362. Regarding `[O-]c1ccccc1N=Nc1ccccc1[O-].[Pt+2].c1ccncc1` [Pt(DHAB)Py, [[2,2azobis[phenolato]](2)-N,O,O](pyridine)platinum, reference compound], the “Absorbance at Maximum” value in data set [5] was found to be 0.41. For “[1-[5-N,N-dibutylsulfonamido-2-hydroxyphenyl]azo-2-naphthalenolato(-2)](pyridine)copper [Compound 10]”, the “Temperature of 50% Loss of Pyridine Ligand” value in data set [2] amounted to 180 °C. In data set [3], the DSC melting behaviour result is given as “does not exhibit a clean melt”. For the compound “[[2,2-azobis[phenolato]](-2)-N,O,O](2,4-pentanedionato-O,O)(ethyl isonicotinate)chromium [Compound 33]”, in data set [4], the “Absorbance at Maximum” value is 0.634. For the compound “[[2,2-azobis[phenolato]](-2)-N,O,O](4-n-octylpyridine)platinum [Compound 17]”, in data set [5], the “Absorbance at Maximum” value is 2.49.
